We go through two compounds from patent publication US12636269B2, “Compositions and methods of use of gamma-ketoaldheyde scavengers for treating, preventing or improving fibrosis of the liver” (MTI Biotech, Inc., priority 2017, dated 2026).

The subject of one series is DIAMOND mice. Kind of series: liver histology (fibrosis, steatosis, ballooning, inflammation) in DIAMOND mice on high-fat, high-sugar diet. The settings on record: for fibrosis score: Picosirius Red staining, scale of 0 to 4, 1 g/L in drinking water, 12 weeks. In kind it is in vivo, mouse. The text has this:
DIAMOND (Diet Induced Animal Model of Non-alcoholic fatty liver Disease) is a proprietary isogenic mouse strain that sequentially develops non-alcoholic fatty liver disease, non-alcoholic steatohepatitis, fibrosis, and hepatocellular carcinoma in response to a high-fat, high-sugar diet. Disease progression in the DIAMOND mice uniquely parallels human disease progression, including histopathology.
(§1) Twelve 8-wk old male DIAMOND mice were placed on ad libitum high fat diet (Harlan—ENVIGO TD.88317) and water containing glucose (18.9% w/v) and fructose (23.1% w/v); all mice remained on this diet throughout the study protocol. At 12 weeks of age, mice were divided into two groups: 1) 2-HOBA (n=6), and 2) vehicle controls (n=6). Animals in the 2-HOBA group received 2-HOBA in drinking water (1 g/L water with glucose and fructose). The vehicle control group received water without 2-HOBA (with glucose and fructose). Body weight and food intake were measured weekly. At […] of age, all animals underwent a glucose tolerance test (GTT) and MRI imaging to assess hepatic fat. For the GTT, animals were fasted for 12 hours and then glucose (2 g/kg bw of a 100 mg/mL glucose in sterile water) was administered by oral gavage. Blood was sampled at 0, 15, 30, 45, 60, 90, and 120 minutes after glucose administration and area under the curve was calculated. Animals were sacrificed at 24 weeks of age (12 weeks of 2-HOBA or vehicle treatment). Tissues and serum were collected for analysis.
Liver sections were stained with hematoxylin and eosin (for scoring of steatosis, hepatocyte ballooning, and inflammation) and Sirius red (for assessment of fibrosis). Scoring was performed in a blinded manner for steatosis, ballooning, inflammation, and necrosis using the following criterial, Steatosis (0-4): 0=<5%; 1=5-25%; 2=25-50%; 3=50-75%; 4=75-100%. Ballooning (0-3): 0=absent; 1=mild (focal involving fewer than three hepatocytes); 2=moderate (focal involving more than three hepatocytes or multifocal); 3=prominent (multifocal with more than two foci of three or more hepatocytes). Inflammation (0-4): 0=absent; 1=minimal (zero to one focus per 20× field); 2=mild (two foci); 3=moderate (three foci); 4=severe (four or more foci). Serum levels of glucose, alanine transaminase, and aspartate transaminase were measured. Liver mRNA expression was assessed via RT-qPCR for the following genes: Tnfa, Nlrpla, Il1b, Il18, Timp1, Colla1, ProCard, Nlrp3, Casp1, ProIl1b, Tgfb1, Bambi, Pdk4, and Gapdh. Two-tailed independent samples t-tests were used to compare endpoints between 2-HOBA and vehicle treated groups. Significance was set at α=0.05.

The subject of another series is Colla1. Kind of series: liver mRNA expression by RT-qPCR in DIAMOND mice, Colla1. Type of series: in vivo, mouse. As to conditions: qRT-PCR, not statistically significant (p=0.08).
Text: as §1, with “Animals were sacrificed at 24 weeks of age (12 weeks of 2-HOBA or vehicle treatment). Tissues and serum were collected for analysis.” left out
(§2) Liver sections were stained with hematoxylin and eosin (for scoring of steatosis, hepatocyte ballooning, and inflammation) and Sirius red (for assessment of fibrosis). […] Serum levels of glucose, alanine transaminase, and aspartate transaminase were measured. Liver mRNA expression was assessed via RT-qPCR for the following genes: Tnfa, Nlrpla, Il1b, Il18, Timp1, Colla1, ProCard, Nlrp3, Casp1, ProIl1b, Tgfb1, Bambi, Pdk4, and Gapdh. […]

The subject of a further series is Timp1. In words: liver mRNA expression by RT-qPCR in DIAMOND mice, Timp1. As to conditions: qRT-PCR. Type of series: in vivo, mouse.
Text: as §1, with “Animals were sacrificed at 24 weeks of age (12 weeks of 2-HOBA or vehicle treatment). Tissues and serum were collected for analysis.” left out
as §2
A general note: Real-time PCR tracks product formation cycle by cycle.

The conditions of series [1]: in vitro and in vivo; cited from earlier work.
For another series, the system named is cyclooxygenase enzymes. The settings on record: cited from earlier work.
The next series concerns HepG2 cells. The settings on record: cited from earlier work.
The next series has as its system primary human HSC. The settings on record: non-cytotoxic levels; cited from earlier work.
[2] abbreviates: compared to vehicle treated DIAMOND mice.

As for `NCc1ccccc1O` [2-HOBA, 2-Hydroxybenzylamine], in the series on DIAMOND mice (DIAMOND mice), the hepatic fibrosis entry was “attenuates” and the markers of inflammation entry is recorded as “without altering”. In addition, the fibrosis score in the series with DIAMOND mice (the remaining two treated mice) was 1. The compound also displayed a fibrosis score with DIAMOND mice (three of the treated mice) of 0. In the series on DIAMOND mice (setting [2]), the “degree of hepatic steatosis” value is given as “similar” and the “degree of hepatocellular ballooning” value is listed as “similar”. In the series with DIAMOND mice (compared to vehicle treated DIAMOND mice, p=0.03), the incidence of fibrosis result is listed as “significantly lower”. The “Colla1 mRNA expression levels” value in the series on Colla1 is listed as “tended to be lower”. Further, the “liver Timp1 mRNA expression” value in the series on Timp1 is reported as “reduced”. Moreover, in series [1], the “protein and lipid adduction” value was “preventing protein and lipid adduction”. Moreover, the “inhibition of cyclooxygenase enzymes” value in the series with cyclooxygenase enzymes is given as “does not inhibit”. Also, in the series on HepG2 cells, the “protection against H2O2-induced cytotoxicity” value is given as “dramatically protected”.
In the case of 15-E2-isolevuglandin [15-E2-IsoLG], in the series on primary human HSC, the “HSC activation (α-SMA expression, MAPK activation, cytokine production)” value is reported as “promoted HSC activation”.
